16 compounds from ChEMBL document CHEMBL3639215, “Piperazine compound having a PGDS inhibitory effect” (2014) can be followed below.

SMILES strings stand for the structures.

The target in this experiment is Hematopoietic prostaglandin D synthase (Homo sapiens, UniProt O60760). The experiment can be described thus: Inhibiting Action: The test was carried out according to the method of Urade, Y. et al. (J. Biol. Chem., 262, 3820-3825, (1987)). More specifically, the reaction mixture (49 μL) containing 100 mM Tris-HCl (pH 8.0), 1 mM reduced glutathione, 0.1 mg/mL γ-globulin, and human H-PGDS (q.s.), and a compound (final concentration: 0.01-100 μM) was preincubated at 25C. for 5 minutes. A DMSO solution (final concentration: 1%) was added to the solvent control group. Subsequently, 1 μL of [14C] prostaglandin H2 (final concentration: 10 μM) was added to start the reaction. One minute after the start of the reaction, 250 μL of a reaction stop solution (diethylether/methanol/1 M citric acid (30/4/1) at a temperature of −20C. was added to stop the reaction. After the reaction was stopped, 50 μL of the upper-layer portion (organic solvent layer) was applied to a TLC plate and developed at −20C. for 45 minutes (developing solvent: diethylether/methanol/acetic acid (90/2/1)).
Sequence of Hematopoietic prostaglandin D synthase (O60760 whole entry): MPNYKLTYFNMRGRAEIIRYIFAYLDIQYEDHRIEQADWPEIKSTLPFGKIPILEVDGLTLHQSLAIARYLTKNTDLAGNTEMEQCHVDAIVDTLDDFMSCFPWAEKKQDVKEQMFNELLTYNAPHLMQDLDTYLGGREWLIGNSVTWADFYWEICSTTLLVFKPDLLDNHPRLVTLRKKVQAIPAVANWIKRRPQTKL
For `O=C(NCCN1CCOCC1)c1ccc(N2CCC(NC(=O)N3CCN(C(=O)c4ccoc4)CC3)CC2)cc1`, the IC50 is more than 1000 nM.
In the case of `O=C(NCCN1CCOCC1)c1ccc(N2CCC(NC(=O)N3CCN(C(=O)c4ccno4)CC3)CC2)cc1` it was more than 1000 nM; in that of `O=C(Nc1nc2ccc(Cl)cc2s1)N1CCN(C(=O)c2cccc(F)c2)CC1`, 204 nM.
Take `O=C(NCCN1CCOCC1)c1ccc(N2CCC(NC(=O)N3CCN(C(=O)c4ccccc4)CC3)CC2)cc1`: the half-inhibitory concentration (IC50) turned out to be 249 nM.
On to `Cn1ccnc1C(=O)N1CCN(C(=O)NC2CCN(c3ccc(C(=O)NCCN4CCOCC4)cc3)CC2)CC1`, for which the IC50 is more than 1000 nM.
In the case of `Cc1ccc2nc(NC(=O)N3CCN(C(=O)c4cccc(F)c4)CC3)sc2c1`, the half-maximal inhibitory concentration (IC50) was determined as 260 nM.
For `O=C(NCCN1CCOCC1)c1ccc(N2CCC(NC(=O)N3CCN(C(=O)C4CCCC4)CC3)CC2)cc1`, the IC50 was more than 1000 nM.
In the case of `Cc1cc2nc(NC(=O)N3CCN(C(=O)c4cccc(F)c4)CC3)sc2cc1C` it was 222 nM; in that of `O=C(Nc1nc2ccc(Br)cc2s1)N1CCN(C(=O)c2cccc(F)c2)CC1`, 106 nM.
For the compound `O=C(NCCN1CCOCC1)c1ccc(N2CCC(NC(=O)N3CCN(C(=O)c4ccc[nH]4)CC3)CC2)cc1`, the IC50 was determined as 334 nM.
In the case of `O=C(NCCN1CCOCC1)c1ccc(N2CCC(NC(=O)N3CCN(C(=O)c4ccsc4)CC3)CC2)cc1` it was 327 nM.
In the case of `Cc1cc(C)c(C(=O)N2CCN(C(=O)NC3CCN(c4ccc(C(=O)NCCN5CCOCC5)cc4)CC3)CC2)[nH]1` it was more than 1000 nM; in that of `O=C(NCCN1CCOCC1)c1ccc(N2CCC(NC(=O)N3CCN(C(=O)c4ccco4)CC3)CC2)cc1`, 445 nM.
In the case of `O=C(NCCN1CCOCC1)c1ccc(N2CCC(NC(=O)N3CCN(C(=O)c4cccs4)CC3)CC2)cc1` it was 201 nM.
For `COc1ccc2nc(NC(=O)N3CCN(C(=O)c4cccc(F)c4)CC3)sc2c1`, the IC50 was 318 nM.
For the compound `Cn1ccc(C(=O)N2CCN(C(=O)NC3CCN(c4ccc(C(=O)NCCN5CCOCC5)cc4)CC3)CC2)c1`, the IC50 is more than 1000 nM.
